Test results taken from article PMC3827244, “An Ultrasensitive High Throughput Screen for DNA Methyltransferase 1-Targeted Molecular Probes” (PLoS ONE, 2013).

Tests used:
calf thymus DNA = test: DNA intercalation assay (ethidium bromide displacement); assay type: binding; conditions: 10 µM compound, 15 µg/ml ctDNA, 1.5 µM ethidium bromide; DMSO 2370 ± 190
Experimental: DNA intercalation was assessed by examining the ability of the compounds to displace ethidium bromide from calf thymus DNA (ctDNA; Sigma). Duplicate assays (100 µl) were conducted in black 96 well plates and contained 15 µg/ml ctDNA, 1.5 µM ethidium bromide and 10 µM compound in methylation assay buffer. DMSO was used as a negative control and daunorubicin (Sigma) was used as a positive control. Fluorescence was measured using excitation and emission wavelengths of 320 nm and 600 nm, respectively.

CD-DNMT3A/DNMT3L complex = target: T1, CD-DNMT3A/DNMT3L complex (Homo sapiens, UniProt Q9Y6K1); test: Compound selectivity, endonuclease-coupled DNA methylation assay; assay type: biochemical; conditions: 20 µM inhibitor; for Percent activity, DNMT3A/DNMT3L Complex: 20 nM methyltransferase, 0.25 mM SAM
T1 construct: CD-DNMT3A; amino acids 611–912; His tag (N); made in house; host or cells: Rosetta 2(DE3)pLysS (E. coli) for CD-DNMT3A
T1 sequence (Q9Y6K1 611-912): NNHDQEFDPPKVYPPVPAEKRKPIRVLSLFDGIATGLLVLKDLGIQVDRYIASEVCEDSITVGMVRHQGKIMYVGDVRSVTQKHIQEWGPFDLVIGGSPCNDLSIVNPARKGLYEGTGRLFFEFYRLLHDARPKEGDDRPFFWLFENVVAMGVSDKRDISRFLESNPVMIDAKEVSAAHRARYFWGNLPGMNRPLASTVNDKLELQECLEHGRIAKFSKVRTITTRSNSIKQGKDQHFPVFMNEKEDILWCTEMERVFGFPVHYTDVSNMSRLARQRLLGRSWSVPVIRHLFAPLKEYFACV
T1 sequence (Q9UJW3 whole entry partner, the tested form may be a part): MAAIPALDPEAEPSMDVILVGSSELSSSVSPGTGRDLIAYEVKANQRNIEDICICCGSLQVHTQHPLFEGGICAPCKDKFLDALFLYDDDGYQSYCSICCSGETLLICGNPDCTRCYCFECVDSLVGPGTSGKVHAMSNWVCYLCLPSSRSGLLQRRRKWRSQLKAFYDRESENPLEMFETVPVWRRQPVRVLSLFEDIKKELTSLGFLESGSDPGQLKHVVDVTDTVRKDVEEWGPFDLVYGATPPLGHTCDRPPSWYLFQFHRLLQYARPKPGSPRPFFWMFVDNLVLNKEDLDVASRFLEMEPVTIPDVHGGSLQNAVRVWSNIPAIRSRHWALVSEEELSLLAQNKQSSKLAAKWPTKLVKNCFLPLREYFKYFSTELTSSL
Experimental: (§1) Triplicate assays (100 µl) containing 0.25 mM SAM, 0.2 µM oligonucleotide 8006, 0.8 U GlaI, 20 nM methyltransferase, 20 µM inhibitor and 1% DMSO were conducted in 96 well plates. Following enzyme addition, assay plates were incubated at 37°C for 75 min and fluorescence was measured in a BioTek Neo plate reader. A control containing only GlaI was subtracted from each assay. […] Percent activity was determined by comparing product formation to a DMSO containing control assay.

[1] = target: T2, RFTS-containing DNMT1 (amino acids 351–1616) (Homo sapiens, UniProt P26358); test: as above; assay type: biochemical; conditions: 20 µM inhibitor, 20 nM methyltransferase, 0.25 mM SAM
T2 construct: RFTS-containing DNMT1, amino acids 351–1616; made in house
T2 sequence (P26358 351-1616): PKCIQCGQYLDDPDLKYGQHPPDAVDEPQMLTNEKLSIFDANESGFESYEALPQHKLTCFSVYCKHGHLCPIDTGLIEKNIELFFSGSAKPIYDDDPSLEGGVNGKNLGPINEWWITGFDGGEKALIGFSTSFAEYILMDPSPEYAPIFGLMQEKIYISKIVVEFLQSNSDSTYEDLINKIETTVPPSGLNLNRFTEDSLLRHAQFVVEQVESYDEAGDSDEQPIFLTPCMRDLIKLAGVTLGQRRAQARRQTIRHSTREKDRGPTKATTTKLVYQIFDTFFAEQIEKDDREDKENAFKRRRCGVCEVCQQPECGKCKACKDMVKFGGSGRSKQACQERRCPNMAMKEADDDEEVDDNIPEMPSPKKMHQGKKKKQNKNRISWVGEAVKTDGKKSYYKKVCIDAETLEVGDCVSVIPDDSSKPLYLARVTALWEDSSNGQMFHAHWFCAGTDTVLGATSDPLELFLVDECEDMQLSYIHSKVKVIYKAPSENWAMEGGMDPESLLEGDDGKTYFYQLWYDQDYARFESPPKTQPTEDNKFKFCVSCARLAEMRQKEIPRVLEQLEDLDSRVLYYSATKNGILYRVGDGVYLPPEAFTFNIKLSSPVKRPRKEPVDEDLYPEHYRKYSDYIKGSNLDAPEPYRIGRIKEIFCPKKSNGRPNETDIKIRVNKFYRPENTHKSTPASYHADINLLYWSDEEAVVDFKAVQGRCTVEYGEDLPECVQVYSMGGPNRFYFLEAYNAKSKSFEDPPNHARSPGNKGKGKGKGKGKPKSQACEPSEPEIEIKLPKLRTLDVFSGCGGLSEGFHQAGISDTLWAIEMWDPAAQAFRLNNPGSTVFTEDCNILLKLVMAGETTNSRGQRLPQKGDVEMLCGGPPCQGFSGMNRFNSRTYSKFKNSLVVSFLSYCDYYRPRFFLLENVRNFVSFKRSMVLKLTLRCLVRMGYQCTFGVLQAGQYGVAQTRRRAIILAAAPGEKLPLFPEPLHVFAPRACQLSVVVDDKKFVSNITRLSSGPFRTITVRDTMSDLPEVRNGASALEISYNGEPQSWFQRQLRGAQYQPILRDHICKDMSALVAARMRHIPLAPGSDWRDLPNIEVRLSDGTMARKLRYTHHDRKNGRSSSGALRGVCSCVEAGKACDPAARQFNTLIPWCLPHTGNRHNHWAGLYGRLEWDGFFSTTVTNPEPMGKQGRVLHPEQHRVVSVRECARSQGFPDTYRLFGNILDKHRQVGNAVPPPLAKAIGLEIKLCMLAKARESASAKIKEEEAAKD
Experimental: as §1

[2] = tested on: Rgs6−/− mouse embryonic fibroblasts; parameters: method as in PMID 23995786; conditions: murine Rgs6−/− mouse embryonic fibroblasts; cited from earlier work
[3] = tested on: MCF-7 breast cancer cells; conditions: cited from earlier work
DNMT1 = conditions: cited from earlier work
[4] = target: T3, DNMT1 (amino acids 621–1616) (Homo sapiens, UniProt P26358); test: Concentration-dependence (IC50), endonuclease-coupled DNA methylation assay; assay type: biochemical; conditions: for IC50: 10 µM SAM, 20 nM oligonucleotide 8006, 2 nM DNMT1, 95% confidence interval in brackets
T3 construct: RFTS-lacking DNMT1, amino acids 621–1616; made in house
T3 sequence (P26358 621-1616): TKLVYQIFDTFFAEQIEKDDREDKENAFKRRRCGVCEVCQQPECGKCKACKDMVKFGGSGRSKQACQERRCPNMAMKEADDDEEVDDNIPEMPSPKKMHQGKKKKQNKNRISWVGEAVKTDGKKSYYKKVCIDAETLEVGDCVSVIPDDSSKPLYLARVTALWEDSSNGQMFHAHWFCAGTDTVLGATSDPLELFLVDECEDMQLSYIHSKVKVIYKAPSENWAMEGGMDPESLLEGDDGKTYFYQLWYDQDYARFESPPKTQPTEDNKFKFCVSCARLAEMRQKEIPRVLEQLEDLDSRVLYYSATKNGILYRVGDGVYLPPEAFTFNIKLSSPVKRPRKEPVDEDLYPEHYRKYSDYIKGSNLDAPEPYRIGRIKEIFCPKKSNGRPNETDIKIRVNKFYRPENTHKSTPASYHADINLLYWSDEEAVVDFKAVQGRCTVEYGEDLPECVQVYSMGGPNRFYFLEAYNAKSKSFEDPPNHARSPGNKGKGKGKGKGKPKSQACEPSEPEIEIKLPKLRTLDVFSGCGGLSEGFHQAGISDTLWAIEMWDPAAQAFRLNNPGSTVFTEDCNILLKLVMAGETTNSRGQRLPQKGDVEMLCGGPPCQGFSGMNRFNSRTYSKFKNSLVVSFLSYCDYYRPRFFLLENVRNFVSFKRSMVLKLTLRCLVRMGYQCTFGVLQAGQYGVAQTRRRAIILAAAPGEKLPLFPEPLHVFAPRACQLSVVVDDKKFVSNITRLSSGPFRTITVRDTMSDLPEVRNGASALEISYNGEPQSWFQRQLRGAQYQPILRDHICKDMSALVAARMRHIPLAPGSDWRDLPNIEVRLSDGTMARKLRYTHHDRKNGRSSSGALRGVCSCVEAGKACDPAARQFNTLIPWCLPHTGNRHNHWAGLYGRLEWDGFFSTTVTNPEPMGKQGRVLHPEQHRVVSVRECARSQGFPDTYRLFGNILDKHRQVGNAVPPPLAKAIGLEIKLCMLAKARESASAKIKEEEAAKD
Experimental: IC50 values for each validated direct inhibitor were determined under identical assay conditions (10 µM SAM and 20 nM oligonucleotide 8006) using the endonuclease-coupled DNA methylation assay in triplicate (80 µl) in a 96 well format. Assays contained 0.8 U GlaI, 2 nM DNMT1 (amino acids 621–1616) and 0.94% DMSO with inhibitor concentration varied from 0 to 10 µM. FAM fluorescence was measured in a Biotek Neo plate reader over the course of 45 minutes. A control containing GlaI in the absence of DNMT1 was subtracted from each assay condition. Corrected assay traces were fitted in Prism and percent activity was determined by comparing to a DMSO containing control. IC50 values were determined by fitting the percent activity data using a unity Hill slope in Prism.

HepG2 cells = tested on: HepG2 cells; parameters: method as in PMID 22939515; conditions: cited from earlier work

Row | Structure (SMILES) | RFU (ethidium bromide fluorescence) (calf thymus DNA) | Percent activity, DNMT3A/DNMT3L Complex (CD-DNMT3A/DNMT3L complex) | Percent activity, RFTS-containing Dnmt1 [1] | DNMT1-dependent oncogenic transformation and apoptosis [2] | expression of methylation-silenced genes [3] | selectivity for DNMT1 over DNMT3A/DNMT3L (CD-DNMT3A/DNMT3L complex) | mechanism of inhibition (DNMT1) | potency relative to alizarin (cmpd 26) ([4]; more potent than alizarin) | selectivity for DNMT1 versus DNMT3A/DNMT3L (in words) (CD-DNMT3A/DNMT3L complex) | levels of DNA methylation (HepG2 cells) | IC50 [4]
1 | O=C(O)C(S)C(S)C(=O)O (stereo not drawn) [Cmpd 51] | 2525 ± 200 RFU | 61±12% | 24±11% | – | – | – | – | – | – | – | –
2 | CC(=O)NCCc1ccc(O)c(-c2c(O)c(O)c3c(c2O)C(=O)c2c(cc(O)c(C(=O)O)c2C(=O)O)C3=O)c1 [Cmpd 40, Laccaic acid A] | 2311 ± 148 RFU | 80±10% | 21±9% | reverses DNMT1-dependent oncogenic transformation and apoptosis | reactivates expression of a set of methylation-silenced genes | ~4 fold | DNA-competitive inhibitor | ~5 fold | – | – | –
3 | O=C1c2ccccc2C(=O)c2c1ccc(O)c2O [Cmpd 26, alizarin] | 2364 ± 30 RFU | 49±12% | 51±10% | – | – | – | – | – | nonselective | – | –
4 | Oc1cc(Cl)ccc1Oc1ccc(Cl)cc1Cl [Cmpd 13, triclosan] | 2406 ± 5 RFU | 23±10% | 25±8% | – | – | – | – | – | nonselective | reduced the levels of DNA methylation | –
5 | CSc1nc2cc(Cl)c(Oc3cccc(Cl)c3Cl)cc2[nH]1 [Cmpd 29, triclabendazole] | 2500 ± 144 RFU | 110±5% | – | – | – | – | – | – | exhibited selectivity | – | –
6 | O=c1c(O)c(-c2ccc(O)c(O)c2)oc2c(O)c(O)cc(O)c12 [Cmpd 33] | 2524 ± 45 RFU | 74±13% | 38±13% | – | – | – | – | – | – | – | –
7 | O=C(O)c1cc(O)c2c(c1)[C@@H]([C@H]1c3cc(C(=O)O)cc(O)c3C(=O)c3c(O[C@H]4O[C@H](CO)[C@@H](O)[C@H](O)[C@H]4O)cccc31)c1cccc(O[C@H]3O[C@H](CO)[C@@H](O)[C@H](O)[C@H]3O)c1C2=O [Cmpd 22] | 2415 ± 150 RFU | 88±11% | 40±10% | – | – | – | – | – | – | – | 470 nM
8 | O=C(O)c1cc(O)c2c(c1)[C@@H]([C@@H]1c3cc(C(=O)O)cc(O)c3C(=O)c3c(O[C@H]4O[C@H](CO)[C@@H](O)[C@H](O)[C@H]4O)cccc31)c1cccc(O[C@H]3O[C@H](CO)[C@@H](O)[C@H](O)[C@H]3O)c1C2=O [Cmpd 36] | 2309 ± 60 RFU | 83±15% | 30±12% | – | – | – | – | – | – | – | –
9 | CC1/C=C/C=C/C=C/C=C/C=C/C=C/C=C/C(O[C@@H]2O[C@H](C)[C@H](O)[C@@H](O)[C@@H]2N)CC(O)C(C(=O)O)C(O)CC(=O)CC(O)CC(O)CC(O)CC(=O)CCCC(=O)CC(=O)OC1C(C)CC(C)C(O)CC(=O)c1ccc(N)cc1 (stereo partly drawn) [Cmpd 24] | 2389 ± 64 RFU | 49±16% | – | – | – | – | – | – | – | – | 400 nM
